Like-named read-outs stand apart in the source and are kept apart here.
Columns and labels:
Assay in all cases: Kinase inhibitory activity profiling of RI-962@10 µM (406 kinases, Eurofins)
Format in all cases: biochemical
[1] = biological target: panel of human kinases (kinase named in endpoint) (Homo sapiens, UniProt P36897); conditions: 10 µM; read-out: Activity (%), TGFBR1(h)
Outline: (§1)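 Radiometric filter-binding kinase assays: enzyme preincubated 15 min with compound in 8 mM MOPS pH 7.0, 0.2 mM EDTA, 250 μM peptide substrate, 10 mM magnesium acetate, 10 μM [γ-33P]-ATP. Reaction started with Mg/ATP, run 40 min at room temperature, stopped with phosphoric acid; 33P incorporation read by scintillation counting. Other kinases by similar protocols.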

[2] = biological target: panel of human kinases (kinase named in endpoint) (Homo sapiens, UniProt P10398); conditions: 10 µM; read-out: Activity (%), A-Raf(h)
Outline: as §1

[3] = biological target: panel of human kinases (kinase named in endpoint) (Homo sapiens, UniProt P41743); conditions: 10 µM; read-out: Activity (%), PKCι(h)
Outline: as §1

[4] = biological target: panel of human kinases (kinase named in endpoint) (Homo sapiens, UniProt O94806); conditions: 10 µM; read-out: Activity (%), PKD3(h)
Outline: as §1

[5] = biological target: panel of human kinases (kinase named in endpoint) (Homo sapiens, UniProt P07949); conditions: 10 µM; read-out: Activity (%), Ret(h)
Outline: as §1

[6] = biological target: panel of human kinases (kinase named in endpoint) (Homo sapiens, UniProt Q8N4C8); conditions: 10 µM; read-out: Activity (%), MINK(h)
Outline: as §1

[7] = biological target: panel of human kinases (kinase named in endpoint) (Homo sapiens, UniProt P36896); conditions: 10 µM; read-out: Activity (%), ALK4(h)
Outline: as §1

[8] = biological target: panel of human kinases (kinase named in endpoint) (Homo sapiens, UniProt Q13153); conditions: 10 µM; read-out: Activity (%), PAK1(h)
Outline: as §1

[9] = biological target: panel of human kinases (kinase named in endpoint) (Homo sapiens, UniProt P49674); conditions: 10 µM; read-out: Activity (%), CK1ε(h)
Outline: as §1

[10] = biological target: panel of human kinases (kinase named in endpoint) (Homo sapiens, UniProt P78362); conditions: 10 µM; read-out: Activity (%), SRPK2(h)
Outline: as §1

[11] = biological target: panel of human kinases (kinase named in endpoint) (Homo sapiens, UniProt Q15139); conditions: 10 µM; read-out: Activity (%), PKCμ(h)
Outline: as §1

[12] = test system: panel of human kinases (kinase named in endpoint); conditions: 10 µM
Outline: as §1

[13] = biological target: panel of human kinases (kinase named in endpoint) (Homo sapiens, UniProt Q8TDR2); conditions: 10 µM; read-out: Activity (%), CLIK1(h)
Outline: as §1

[14] = biological target: panel of human kinases (kinase named in endpoint) (Homo sapiens, UniProt P52564); conditions: 10 µM; read-out: Activity (%), MKK6(h)
Outline: as §1

[15] = biological target: panel of human kinases (kinase named in endpoint) (Homo sapiens, UniProt Q9Y6M4); conditions: 10 µM; read-out: Activity (%), CK1γ3(h)
Outline: as §1

[16] = biological target: panel of human kinases (kinase named in endpoint) (Homo sapiens, UniProt P78368); conditions: 10 µM; read-out: Activity (%), CK1γ2(h)
Outline: as §1

[17] = biological target: panel of human kinases (kinase named in endpoint) (Homo sapiens, UniProt Q04912); conditions: 10 µM; read-out: Activity (%), Ron(h)
Outline: as §1

[18] = biological target: panel of human kinases (kinase named in endpoint) (Homo sapiens, UniProt O14757); conditions: 10 µM; read-out: Activity (%), CHK1(h)
Outline: as §1

[19] = biological target: panel of human kinases (kinase named in endpoint) (Homo sapiens, UniProt P12931); conditions: 10 µM
Outline: as §1

[20] = biological target: panel of human kinases (kinase named in endpoint) (Homo sapiens, UniProt Q9H3Y6); conditions: 10 µM; read-out: Activity (%), SRMS(h)
Outline: as §1

[21] = biological target: panel of human kinases (kinase named in endpoint) (Homo sapiens, UniProt Q86UX6); conditions: 10 µM; read-out: Activity (%), STK32C(h)
Outline: as §1

[22] = biological target: panel of human kinases (kinase named in endpoint) (Homo sapiens, UniProt Q09013); conditions: 10 µM; read-out: Activity (%), DMPK(h)
Outline: as §1

[23] = biological target: panel of human kinases (kinase named in endpoint) (Homo sapiens, UniProt O00329); conditions: 10 µM; read-out: Activity (%), PI3 Kinase (p110d/p85a)(h)
Outline: as §1

[24] = biological target: panel of human kinases (kinase named in endpoint) (Homo sapiens, UniProt Q9HBH9); conditions: 10 µM; read-out: Activity (%), Mnk2(h)
Outline: as §1

[25] = biological target: panel of human kinases (kinase named in endpoint) (Homo sapiens, UniProt P10721, D816H); conditions: 10 µM; read-out: Activity (%), cKit(D816H)(h)
Outline: as §1

Chain of panel of human kinases (kinase named in endpoint) (Homo sapiens, UniProt P12931) (P12931 whole entry): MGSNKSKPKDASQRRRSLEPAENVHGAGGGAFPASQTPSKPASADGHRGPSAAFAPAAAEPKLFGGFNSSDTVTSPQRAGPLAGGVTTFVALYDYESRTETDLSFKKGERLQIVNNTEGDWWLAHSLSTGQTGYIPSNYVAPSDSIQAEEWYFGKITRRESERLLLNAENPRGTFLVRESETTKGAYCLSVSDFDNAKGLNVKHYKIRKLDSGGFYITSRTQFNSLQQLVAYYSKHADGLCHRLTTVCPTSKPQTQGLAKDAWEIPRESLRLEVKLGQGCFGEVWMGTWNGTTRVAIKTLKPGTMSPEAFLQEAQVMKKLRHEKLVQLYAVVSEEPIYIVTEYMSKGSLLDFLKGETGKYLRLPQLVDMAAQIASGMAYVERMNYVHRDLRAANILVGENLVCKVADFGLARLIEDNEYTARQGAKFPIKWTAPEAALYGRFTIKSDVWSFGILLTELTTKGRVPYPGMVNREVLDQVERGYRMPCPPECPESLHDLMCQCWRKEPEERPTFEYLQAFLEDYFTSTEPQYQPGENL
Chain of panel of human kinases (kinase named in endpoint) (Homo sapiens, UniProt O94806) (O94806 whole entry): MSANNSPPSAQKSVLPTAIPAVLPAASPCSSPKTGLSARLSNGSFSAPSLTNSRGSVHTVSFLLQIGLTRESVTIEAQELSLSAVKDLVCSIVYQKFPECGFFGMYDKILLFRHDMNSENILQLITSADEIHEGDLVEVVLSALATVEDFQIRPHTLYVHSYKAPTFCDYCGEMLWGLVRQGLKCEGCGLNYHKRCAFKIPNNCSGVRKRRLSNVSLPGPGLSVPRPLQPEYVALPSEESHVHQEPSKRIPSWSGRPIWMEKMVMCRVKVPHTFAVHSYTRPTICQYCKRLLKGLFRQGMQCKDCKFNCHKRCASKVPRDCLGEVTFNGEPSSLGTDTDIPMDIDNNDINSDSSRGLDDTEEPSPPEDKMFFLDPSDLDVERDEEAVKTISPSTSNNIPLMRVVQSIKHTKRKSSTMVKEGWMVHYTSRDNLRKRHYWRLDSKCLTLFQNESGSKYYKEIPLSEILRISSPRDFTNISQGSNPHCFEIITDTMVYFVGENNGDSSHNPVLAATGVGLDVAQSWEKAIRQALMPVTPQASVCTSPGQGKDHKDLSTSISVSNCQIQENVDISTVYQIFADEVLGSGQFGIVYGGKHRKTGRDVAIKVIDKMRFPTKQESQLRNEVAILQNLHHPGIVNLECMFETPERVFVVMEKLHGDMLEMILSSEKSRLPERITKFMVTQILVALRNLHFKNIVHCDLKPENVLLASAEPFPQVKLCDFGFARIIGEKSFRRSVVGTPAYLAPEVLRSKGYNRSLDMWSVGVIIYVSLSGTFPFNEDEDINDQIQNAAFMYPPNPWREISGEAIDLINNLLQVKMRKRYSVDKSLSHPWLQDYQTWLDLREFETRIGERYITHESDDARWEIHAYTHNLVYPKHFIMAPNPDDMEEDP
Chain of panel of human kinases (kinase named in endpoint) (Homo sapiens, UniProt P49674) (P49674 whole entry): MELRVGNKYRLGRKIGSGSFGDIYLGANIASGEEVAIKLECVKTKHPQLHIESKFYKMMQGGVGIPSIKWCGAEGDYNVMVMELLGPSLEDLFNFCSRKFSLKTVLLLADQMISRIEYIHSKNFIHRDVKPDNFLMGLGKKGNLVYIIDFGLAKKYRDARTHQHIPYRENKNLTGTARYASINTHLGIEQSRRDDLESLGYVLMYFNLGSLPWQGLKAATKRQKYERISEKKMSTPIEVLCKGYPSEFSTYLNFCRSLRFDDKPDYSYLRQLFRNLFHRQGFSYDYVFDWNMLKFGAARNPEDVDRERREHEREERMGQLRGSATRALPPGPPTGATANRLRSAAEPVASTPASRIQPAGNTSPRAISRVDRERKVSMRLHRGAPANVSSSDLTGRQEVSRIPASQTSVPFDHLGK
Chain of panel of human kinases (kinase named in endpoint) (Homo sapiens, UniProt P78362) (P78362 whole entry): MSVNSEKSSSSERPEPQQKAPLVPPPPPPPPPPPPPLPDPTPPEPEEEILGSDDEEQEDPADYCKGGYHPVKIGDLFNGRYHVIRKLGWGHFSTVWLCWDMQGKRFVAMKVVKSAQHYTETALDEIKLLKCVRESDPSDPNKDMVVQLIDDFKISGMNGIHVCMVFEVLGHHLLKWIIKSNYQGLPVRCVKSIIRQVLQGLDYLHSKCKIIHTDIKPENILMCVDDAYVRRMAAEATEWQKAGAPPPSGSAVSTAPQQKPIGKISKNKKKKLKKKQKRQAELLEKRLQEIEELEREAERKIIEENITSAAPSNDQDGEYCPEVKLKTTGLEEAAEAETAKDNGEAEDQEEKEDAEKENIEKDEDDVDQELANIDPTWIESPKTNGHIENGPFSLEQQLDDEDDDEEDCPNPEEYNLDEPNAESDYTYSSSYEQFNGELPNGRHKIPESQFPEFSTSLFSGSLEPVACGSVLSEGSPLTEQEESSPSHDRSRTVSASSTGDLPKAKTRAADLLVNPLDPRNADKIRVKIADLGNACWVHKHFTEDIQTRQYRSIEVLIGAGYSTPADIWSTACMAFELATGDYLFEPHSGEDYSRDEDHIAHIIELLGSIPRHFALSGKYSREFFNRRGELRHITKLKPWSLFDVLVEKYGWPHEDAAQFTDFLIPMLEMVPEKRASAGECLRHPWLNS
Chain of panel of human kinases (kinase named in endpoint) (Homo sapiens, UniProt Q9HBH9) (Q9HBH9 whole entry): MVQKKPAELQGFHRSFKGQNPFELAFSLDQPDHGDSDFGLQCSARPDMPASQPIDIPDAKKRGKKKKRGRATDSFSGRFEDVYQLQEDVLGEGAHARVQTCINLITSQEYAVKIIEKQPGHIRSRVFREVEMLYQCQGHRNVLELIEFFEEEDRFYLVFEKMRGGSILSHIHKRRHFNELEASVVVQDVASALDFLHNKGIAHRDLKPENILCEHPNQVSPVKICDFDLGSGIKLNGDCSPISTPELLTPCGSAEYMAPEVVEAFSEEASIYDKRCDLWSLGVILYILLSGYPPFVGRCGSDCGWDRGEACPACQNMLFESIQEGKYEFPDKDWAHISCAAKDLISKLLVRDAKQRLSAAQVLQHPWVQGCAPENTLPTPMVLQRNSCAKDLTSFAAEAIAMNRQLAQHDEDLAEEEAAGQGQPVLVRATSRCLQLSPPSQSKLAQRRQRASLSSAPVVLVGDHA
Chain of panel of human kinases (kinase named in endpoint) (Homo sapiens, UniProt Q13153) (Q13153 whole entry): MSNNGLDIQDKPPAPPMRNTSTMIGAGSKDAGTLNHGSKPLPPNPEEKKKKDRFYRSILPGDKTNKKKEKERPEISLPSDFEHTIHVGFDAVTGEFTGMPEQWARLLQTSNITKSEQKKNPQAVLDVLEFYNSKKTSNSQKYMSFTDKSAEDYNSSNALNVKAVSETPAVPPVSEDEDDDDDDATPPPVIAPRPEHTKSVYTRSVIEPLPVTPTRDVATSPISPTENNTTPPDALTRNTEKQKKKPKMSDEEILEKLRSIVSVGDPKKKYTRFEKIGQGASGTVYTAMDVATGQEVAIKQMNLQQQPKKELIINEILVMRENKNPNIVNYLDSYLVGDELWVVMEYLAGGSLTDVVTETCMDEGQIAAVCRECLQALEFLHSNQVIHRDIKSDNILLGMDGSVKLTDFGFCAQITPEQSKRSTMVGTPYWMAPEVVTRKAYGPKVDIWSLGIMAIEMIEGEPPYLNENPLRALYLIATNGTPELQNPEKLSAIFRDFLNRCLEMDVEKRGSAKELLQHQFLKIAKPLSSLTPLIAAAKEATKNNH
Chain of panel of human kinases (kinase named in endpoint) (Homo sapiens, UniProt P52564) (P52564 whole entry): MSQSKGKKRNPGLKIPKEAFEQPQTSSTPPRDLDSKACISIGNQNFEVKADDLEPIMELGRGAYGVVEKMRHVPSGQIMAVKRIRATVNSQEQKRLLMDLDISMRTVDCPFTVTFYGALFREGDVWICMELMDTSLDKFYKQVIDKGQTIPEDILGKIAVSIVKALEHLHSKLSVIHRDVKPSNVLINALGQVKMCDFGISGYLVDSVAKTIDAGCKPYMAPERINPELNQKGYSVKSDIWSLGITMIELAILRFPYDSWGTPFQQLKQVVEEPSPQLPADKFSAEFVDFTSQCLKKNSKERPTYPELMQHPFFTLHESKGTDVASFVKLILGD
Chain of panel of human kinases (kinase named in endpoint) (Homo sapiens, UniProt Q15139) (Q15139 whole entry): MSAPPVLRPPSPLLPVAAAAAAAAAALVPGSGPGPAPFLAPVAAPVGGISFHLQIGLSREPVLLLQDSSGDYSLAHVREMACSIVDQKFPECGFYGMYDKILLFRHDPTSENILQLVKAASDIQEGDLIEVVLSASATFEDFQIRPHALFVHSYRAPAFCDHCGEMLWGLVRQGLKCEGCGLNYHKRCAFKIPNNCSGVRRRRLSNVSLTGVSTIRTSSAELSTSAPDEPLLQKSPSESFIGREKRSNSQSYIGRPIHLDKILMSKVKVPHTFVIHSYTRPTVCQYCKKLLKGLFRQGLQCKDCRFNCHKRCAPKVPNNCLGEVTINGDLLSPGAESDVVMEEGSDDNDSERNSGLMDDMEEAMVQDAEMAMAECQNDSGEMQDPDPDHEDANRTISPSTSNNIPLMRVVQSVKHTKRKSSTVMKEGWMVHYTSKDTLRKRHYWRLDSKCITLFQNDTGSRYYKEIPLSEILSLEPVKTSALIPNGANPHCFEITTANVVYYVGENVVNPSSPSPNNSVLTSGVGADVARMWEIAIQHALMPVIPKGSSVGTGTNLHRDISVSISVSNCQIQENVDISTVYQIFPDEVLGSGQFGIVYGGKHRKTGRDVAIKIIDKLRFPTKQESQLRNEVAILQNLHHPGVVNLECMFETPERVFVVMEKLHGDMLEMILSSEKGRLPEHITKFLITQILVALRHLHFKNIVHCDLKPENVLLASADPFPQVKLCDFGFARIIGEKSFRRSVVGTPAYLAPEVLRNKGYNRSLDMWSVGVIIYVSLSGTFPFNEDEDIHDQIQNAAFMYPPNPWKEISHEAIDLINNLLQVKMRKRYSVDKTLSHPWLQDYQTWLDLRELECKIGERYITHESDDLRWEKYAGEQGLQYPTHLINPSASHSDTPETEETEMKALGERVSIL

CC(C)C(=O)Nc1nc2cc(-c3ccc4c(c3)c(C(=O)NC(C)c3ccccc3)cn4C)ccn2n1 (stereo not drawn) [RI-962] was tested. Which activity at 10 µM [1] did it give?
Its activity at 10 µM is 98%.

And the activity at 10 µM [2]?
The activity at 10 µM was 80%.

What about the activity at 10 µM [3] of the same compound?
Its activity at 10 µM is 97%.

What about the activity at 10 µM [4] of the same compound?
The activity at 10 µM was 104%.

What about the activity at 10 µM [5] of the same compound?
The activity at 10 µM was 114%.

What about the activity at 10 µM [6] of the same compound?
Its activity at 10 µM is 63%.

And the activity at 10 µM [7]?
Its activity at 10 µM is 90%.

And the activity at 10 µM [8]?
The activity at 10 µM was 105%.

What about the activity at 10 µM [9] of the same compound?
The activity at 10 µM was 83%.

And the activity at 10 µM [10]?
The activity at 10 µM was 100%.

And the activity at 10 µM [11]?
The activity at 10 µM was 87%.

And the “Activity (%), ACTR2(h)” value [12]?
Its value is 81%.

And the “Activity (%), CK1(y)” value [12]?
The value was 100%.

And the “Activity (%), MAPK1(h)” value [12]?
The value was 94%.

And the “Activity (%), PKCβII(h)” value [12]?
The value was 87%.

What about the “Activity (%), PKG1β(h)” value [12] of the same compound?
Its value is 98%.

And the activity at 10 µM [13]?
The activity at 10 µM was 132%.

What about the activity at 10 µM [14] of the same compound?
The activity at 10 µM was 97%.

And the activity at 10 µM [15]?
The activity at 10 µM was 96%.

What about the activity at 10 µM [16] of the same compound?
The activity at 10 µM was 88%.

And the activity at 10 µM [17]?
The activity at 10 µM was 104%.

And the activity at 10 µM [18]?
The activity at 10 µM was 124%.

What about the activity at 10 µM ([19]; read-out: Activity (%), Src(1-530)(h)) of the same compound?
The activity at 10 µM was 95%.

What about the activity at 10 µM ([19]; read-out: Activity (%), cSRC(h)) of the same compound?
The activity at 10 µM was 100%.

What about the activity at 10 µM [20] of the same compound?
The activity at 10 µM was 101%.

What about the activity at 10 µM [21] of the same compound?
Its activity at 10 µM is 76%.

What about the activity at 10 µM [22] of the same compound?
The activity at 10 µM was 89%.

And the activity at 10 µM [23]?
Its activity at 10 µM is 64%.

What about the activity at 10 µM [24] of the same compound?
Its activity at 10 µM is 92%.

What about the activity at 10 µM [25] of the same compound?
The activity at 10 µM was 142%.

Source: PMC9653409, “Generative deep learning enables the discovery of a potent and selective RIPK1 inhibitor” (Nature Communications, 2022)
